Entries after “also recorded” stand apart in the source; their conditions may differ.
Experiments:
[1] = tested on: HT-29 cells stably expressing Flag-tagged RIPK3; experiment: RIPK3 puncta formation, immunofluorescence; format: cell-based, human; settings: T 100 ng/ml, S, Z 12 h
From the text: In addition to TNF-induced necroptosis, it is known that TLR3 or TLR4 activation can also trigger necroptosis. We further evaluated the effects of PK6 and PK68 on TLR3- and TLR4-mediated necroptosis induced by poly(I:C)/z-VAD and LPS/z-VAD, respectively. […] To investigate the molecular mechanism of PK series-mediated necroptosis inhibition, we examined the effects of these compounds on the major steps of necroptotic signaling, including activation of RIPK1, RIPK3, and MLKL. […] It has been shown previously that RIPK3 activation leads to the formation of RIPK3 puncta during necroptosis.
Fig. 3 PK6 and PK68 block cellular activation of RIPK1, RIPK3, and MLKL upon necroptotic stimuli. a, b Bone marrow-derived macrophages from C57BL/6 mice or rat were pretreated with DMSO, PK6(10 μM), or PK68 (100 nM) for 1 h and subsequently treated with indicated stimuli for 24–30 h. Cell viability was determined by measuring ATP levels. L, LPS (20 ng/ml); P, poly(I:C) (50 μg/ml); S (100 nM); Z (10 μM). Data are represented as the mean ± standard deviation of triplicates. c HT-29 cells were treated with the indicated compound for 1 h prior to the treatment of T (40 ng/ml), S (100 nM), and Z (20 μM) for additional 8 h. […] The distribution of RIPK3 was detected by immunofluorescence. *P < 0.05. **P < 0.01. ***P < 0.001 […]

[2] = molecular target: T1, RIPK3 (Homo sapiens, UniProt Q9Y572); experiment: In vitro kinase activity assay (ADP-Glo); format: biochemical; settings: even at a 1000 nM concentration
T1 construct: purchased Reaction Biology Corporation
T1 sequence (Q9Y572 whole entry): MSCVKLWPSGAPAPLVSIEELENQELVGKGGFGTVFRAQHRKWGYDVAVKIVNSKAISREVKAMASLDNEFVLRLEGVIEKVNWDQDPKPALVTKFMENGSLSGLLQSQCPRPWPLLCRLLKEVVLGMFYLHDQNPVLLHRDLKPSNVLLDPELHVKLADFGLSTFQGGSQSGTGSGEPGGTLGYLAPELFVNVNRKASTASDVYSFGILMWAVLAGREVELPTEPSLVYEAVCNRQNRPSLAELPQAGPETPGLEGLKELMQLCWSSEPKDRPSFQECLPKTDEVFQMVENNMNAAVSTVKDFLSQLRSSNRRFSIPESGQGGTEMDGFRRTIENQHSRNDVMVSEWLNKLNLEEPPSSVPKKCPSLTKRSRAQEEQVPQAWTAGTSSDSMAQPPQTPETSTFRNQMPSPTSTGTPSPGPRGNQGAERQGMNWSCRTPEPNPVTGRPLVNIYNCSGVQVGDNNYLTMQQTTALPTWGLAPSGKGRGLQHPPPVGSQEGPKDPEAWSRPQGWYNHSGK
Method: Having shown that PK6 and PK68 can inhibit activation of both RIPK1 and RIPK3 during TNF-mediated necroptosis, we sought to determine if PK6 and PK68 can directly target RIPK1 or and RIPK3 by performing in vitro kinase assays. Both PK6 and PK68 were able to block the kinase activities of both human RIPK1 and mouse RIPK1 in vitro (Fig. 4a and Supplementary Fig. 19).
Recombinant proteins were incubated with PK6 and PK68 as indicated. […] NIH3T3-RIPK3 cells were pretreated with indicated compounds for 1 h and subsequently treated with T (40 ng/ml)/S (100 nM)/Z (20 μM) or AP20187 (100 nM) for 24 h. Cell viability was determined by measuring ATP levels. e PK6 and PK68 have no effect on MLKL dimerization-induced cell death in HeLa-MLKL (1–190) cells that stably express MLKL (1–190aa) fused to DmrB. HeLa-MLKL (1–190) cells were pretreated with indicated compounds for 1 h and subsequently treated with AP20187 (100 nM) for 24 h. Cell viability was determined by measuring ATP levels. […]
The recombinant RIPK1 or RIPK3 protein was incubated with DMSO or the indicated compound for 15 min in the assay buffer (25 mM HEPES pH 7.2, 20 mM MgCl2, 12.5 mM MnCl2, 12.5 mM β-glycerol phosphate, 5 mM EGTA, 2 mM EDTA, and 2 mM DTT). […] The luminescence was measured to calculate the kinase activity after the addition of the ADP-Glo Kinase Assay kit following the manufacturer’s instructions (Promega).

[3] = 14-day preliminary toxicity, daily oral gavage; format: in vivo, C57BL/6 mice
Method: Data represent mean value ± standard deviation. b Plasma pharmacokinetic parameters of PO and IV. c, d C57BL/6 mice (n = 5) were treated with the indicated daily oral gavage dosing of PK68 for successive 14 days. Body weight (c) and hematoxylin-eosin (H&E) staining (d) of mice were analyzed. Control mice received an equal amount of vehicle. Magnification: ×40. Data represent mean value ± standard deviation TEXT PRINTED IN THE PICTURE: (b) no label printed: Tmax (hr): 0.5 (PO (Gavage)); Cmax (ng/mL): 2423 (PO (Gavage)); AUC0-24 (ng/mL*hr): 4821 (PO (Gavage)); AUC0-24 (ng/mL*hr): 1588 (IV (Bolus)); AUCINF (ng/mL*hr): 4897 (PO (Gavage)); AUCINF (ng/mL*hr): 1590 (IV (Bolus)); t1/2 (hr): 1.3 (PO (Gavage)); t1/2 (hr): 1.0 (IV (Bolus)); MRT (hr): 1.8 (PO (Gavage)); MRT (hr): 0.8 (IV (Bolus)); CL (mL/hr/kg): 1258 (IV (Bolus)); CL (mL/min/kg): 21 (IV (Bolus)); Vss (mL/kg): 1009 (IV (Bolus)); Vss (L/kg): 1.0 (IV (Bolus)); F(%): 61 (PO (Gavage)) DOUBTS OF THE COPYIST ABOUT THIS PICTURE: Panel b prints no substance label with the PK table. The name PK68 is printed only in panels c and d, so the label is left empty.
Judging by the PK time curve, the observed plasma levels of PK68 were above its EC50 over a period of 8 h. […] These doses were meant to determine the preliminary toxicity effects of PK68 (Fig. 6c). […] We further performed histology of various tissues from mice that had received 14-day treatment of PK68.

[4] = 5 and 25 mg/kg, daily oral gavage, 14 days

| SMILES | generation of RIPK3 puncta [1] | RIPK3 kinase activity [2] | body weight and behavior [3, 4] | tolerability [3, 4] | toxicity in mice ([3]; 14-day course, 25 mg/kg) | histology of lung, liver, and heart ([3]; 14-day treatment) |
| --- | --- | --- | --- | --- | --- | --- |
| CC(=O)Nc1nc2ccc(-c3cnc(Cl)c(NC(=O)Cc4ccccc4)c3)cc2s1 [PK6, N-(5-(2-acetamidobenzo[d]thiazol-6-yl)-2-chloropyridin-3-yl)-2-phenylacetamide] | prevented generation of RIPK3 puncta | neither PK6 nor PK68 affected RIPK3 kinase activity | – | – | – | – |
| CC(=O)Nc1nc2ccc(-c3cnc(C)c(NC(=O)OC4CCCCC4)c3)cc2s1 [PK68, cyclohexyl (5-(2-acetamidobenzo[d]thiazol-6-yl)-2-methylpyridin-3-yl)carbamate] | prevented generation of RIPK3 puncta | neither PK6 nor PK68 affected RIPK3 kinase activity | normal body weight and behavior | well tolerated | no obvious toxicity; also recorded: no detectable toxicity | normal morphology |

Reference: paper PMC6591251, “Discovery of potent necroptosis inhibitors targeting RIPK1 kinase activity for the treatment of inflammatory disorder and cancer metastasis” (Cell Death & Disease, 2019)
